In the NIST ThermoML archive (doi:10.1016/j.fluid.2013.01.002):
Numbers after ± are expanded uncertainties.

Columns and labels:
[1] = 298.15 K; 101.33 kPa; Liquid; Vibrating tube method
[2] = refractive index (Na D-line) (dimensionless); settings: 298.15 K; 101.33 kPa; Liquid; Standard Abbe refractometry
[3] = refractive index (Na D-line) (dimensionless); xn = mol fraction of the nth substance listed; settings: 298.15 K, 101 kPa, Liquid, Standard Abbe refractometry
[4] = xn = mol fraction of the nth substance listed; settings: 298.15 K, 101 kPa, Liquid, Vibrating tube method

CCCCCCCCCCCCO [dodecan-1-ol]
Settings	mass density [kg/m3]	refractive index
[1]	830.37 ± 0.1	–
[2]	–	1.4407 ± 0.0004

CCCCCCCCCCCC [dodecane]
Settings	mass density [kg/m3]	refractive index
[1]	745.52 ± 0.13	–
[2]	–	1.4195 ± 0.0004

CCCCCCCCN(CCCCCCCC)CCCCCCCC [trioctylamine]
Settings	mass density [kg/m3]	refractive index
[1]	807.9 ± 0.11	–
[2]	–	1.4476 ± 0.0004

CCCCCCCCN(CCCCCCCC)CCCCCCCC [trioctylamine] + CCCCCCCCCCC
Settings	mass density, [4] [kg/m3]	refractive index, [3]
x1 = 0.05	743.91 ± 0.14	1.4176 ± 0.0004
x1 = 0.1	750.33 ± 0.13	1.4199 ± 0.0004
x1 = 0.2017	761.55 ± 0.13	1.4243 ± 0.0004
x1 = 0.3001	770.56 ± 0.12	1.4285 ± 0.0004
x1 = 0.4002	778.34 ± 0.12	1.4319 ± 0.0004
x1 = 0.4997	785.01 ± 0.12	1.4351 ± 0.0004
x1 = 0.6003	790.89 ± 0.12	1.438 ± 0.0004
x1 = 0.6989	795.96 ± 0.11	1.4407 ± 0.0004
x1 = 0.7996	800.52 ± 0.11	1.4434 ± 0.0004
x1 = 0.9003	804.51 ± 0.11	1.4455 ± 0.0004
x1 = 0.9497	806.25 ± 0.11	1.4466 ± 0.0004

CCCCCCCCN(CCCCCCCC)CCCCCCCC [trioctylamine] + CCCCCCCCCCCC
Settings	mass density, [4] [kg/m3]	refractive index, [3]
x1 = 0.0501	751.32 ± 0.13	1.4222 ± 0.0004
x1 = 0.1	756.64 ± 0.13	1.4249 ± 0.0004
x1 = 0.1998	765.98 ± 0.13	1.4287 ± 0.0004
x1 = 0.3	773.95 ± 0.12	1.4323 ± 0.0004
x1 = 0.4	780.79 ± 0.12	1.4354 ± 0.0004
x1 = 0.5001	786.75 ± 0.12	1.4381 ± 0.0004
x1 = 0.6023	792.12 ± 0.12	1.4403 ± 0.0004
x1 = 0.7001	796.7 ± 0.11	1.4426 ± 0.0004
x1 = 0.8025	801 ± 0.11	1.4444 ± 0.0004
x1 = 0.9002	804.65 ± 0.11	1.4461 ± 0.0004
x1 = 0.9499	806.35 ± 0.11	1.4468 ± 0.0004

CCCCCCCCN(CCCCCCCC)CCCCCCCC [trioctylamine] + CCCCCCCCCCCCO
Settings	mass density, [4] [kg/m3]	refractive index, [3]
x1 = 0.0498	828.8 ± 0.1	1.4416 ± 0.0004
x1 = 0.1011	827.31 ± 0.1	1.4424 ± 0.0004
x1 = 0.2014	824.49 ± 0.1	1.4437 ± 0.0004
x1 = 0.3012	821.97 ± 0.1	1.4447 ± 0.0004
x1 = 0.4001	819.63 ± 0.1	1.4455 ± 0.0004
x1 = 0.5	817.37 ± 0.11	1.4461 ± 0.0004
x1 = 0.6005	815.19 ± 0.11	1.4465 ± 0.0004
x1 = 0.6995	813.14 ± 0.11	1.4469 ± 0.0004
x1 = 0.799	811.21 ± 0.11	1.4473 ± 0.0004
x1 = 0.8999	809.43 ± 0.11	1.4475 ± 0.0004
x1 = 0.9504	808.63 ± 0.11	1.4476 ± 0.0004

CCCCCCCCCCC [undecane]
Settings	mass density [kg/m3]	refractive index
[1]	736.73 ± 0.14	–
[2]	–	1.415 ± 0.0004
